In patent US11214578B2, “Urea/carbamates FAAH MAGL or dual FAAH/MAGL inhibitors and uses thereof” (Northeastern University, priority 2014, dated 2022) one finds IC50 data, which are given here for 13 molecules.

Type in all cases: biochemical
For assay [1], the target named is T1, Rat MAGL (rMAGL) (Rattus norvegicus, UniProt Q8R431).
T1 construct: made in house; host or cells: E. coli
T1 sequence (Q8R431 1-303): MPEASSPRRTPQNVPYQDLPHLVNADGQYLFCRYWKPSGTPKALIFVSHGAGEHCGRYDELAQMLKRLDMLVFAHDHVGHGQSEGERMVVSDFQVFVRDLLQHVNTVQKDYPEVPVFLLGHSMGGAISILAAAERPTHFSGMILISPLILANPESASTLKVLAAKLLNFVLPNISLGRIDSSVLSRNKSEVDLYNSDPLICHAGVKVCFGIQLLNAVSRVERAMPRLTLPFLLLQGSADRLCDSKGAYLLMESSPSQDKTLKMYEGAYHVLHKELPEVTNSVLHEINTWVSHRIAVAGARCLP
The assay is described as follows: Fluorescent assay protocol for rMAGL. The settings on record: recombinant rat MAGL, procedure as for hMAGL; read-out: IC50 rMAGL. How it is done:
(§1) This medium throughput assay involved a 96-well plate format in which hMAGL activity was monitored by the hydrolysis of the substrate 7-hydroxy-6-methoxy-4-methylcoumarin ester (AHMMCE) to form the fluorescent product, coumarin. […] Upon the addition of AHMMCE, the reaction was incubated at 25° C. for 120 min; fluorescence readings were taken every 15 min at 360 nm/460 nm (λexcitation/λemission) using a Synergy HT Plate Reader (Bio-Tek, Winooski, Vt.). […] External standards were used to convert relative fluorescence units to the amount of 4-methylcoumarin formed. All MAGL assays were performed in triplicate for each inhibitor concentration, and IC50 values were calculated using Prizm software (GraphPad Software, Inc., San Diego, Calif.).
Procedure was followed as described for hMAGL.

Assay [2] concerns the target T2, ΔTM rat FAAH (Rattus norvegicus, UniProt P97612).
T2 construct: Preparation of Transmembrane Domain-Deleted Rat FAAH (ΔTM rFAAH); made in house; host or cells: E. coli
T2 sequence (P97612 30-579 limits assumed): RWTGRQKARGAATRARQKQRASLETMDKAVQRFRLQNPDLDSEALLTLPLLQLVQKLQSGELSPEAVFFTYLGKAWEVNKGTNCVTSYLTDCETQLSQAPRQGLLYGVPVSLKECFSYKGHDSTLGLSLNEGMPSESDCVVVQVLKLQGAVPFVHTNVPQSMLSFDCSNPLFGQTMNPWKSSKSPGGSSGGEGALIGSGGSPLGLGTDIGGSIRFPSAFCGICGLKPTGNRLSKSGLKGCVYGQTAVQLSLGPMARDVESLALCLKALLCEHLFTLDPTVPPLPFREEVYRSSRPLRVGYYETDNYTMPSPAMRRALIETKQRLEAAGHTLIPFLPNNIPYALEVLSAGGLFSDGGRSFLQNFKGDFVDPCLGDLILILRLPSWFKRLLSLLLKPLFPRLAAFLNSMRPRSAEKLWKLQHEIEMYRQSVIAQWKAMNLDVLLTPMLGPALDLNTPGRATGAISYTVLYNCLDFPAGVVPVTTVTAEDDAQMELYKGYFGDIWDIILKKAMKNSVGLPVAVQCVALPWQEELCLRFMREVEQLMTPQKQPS
The assay is described as follows: Fluorescent assay protocol for ΔTM rat FAAH (AAMCA substrate). The settings on record: 15 min preincubation, read-out: IC50 rFAAH. How it is done: Procedure was followed as described for hMAGL, except that arachidonoyl-methyl coumarin amide (AAMCA) was used as fluorigenic substrate. […] For the screening assay, 3 concentrations (1 μM, 10 μM, and 100 μM) of test compounds, 15 μg of ΔTM rFAAH and assay buffer were pre-incubated for 15 min at 25° C. […] The fluorescence reading at the 3 hour time point (linear enzyme kinetics) was used to calculate percent inhibition based on control assays without inhibitor present. All FAAH assays were performed in triplicate for each inhibitor concentration, and IC50 values determined using Prizm software (GraphPad Software, Inc.).

Assay [3] deals with T3, Human FAAH (MBPΔTMhFAAH) (Homo sapiens, UniProt O00519).
T3 construct: made in house; host or cells: E. coli (pMALcE4 vector)
T3 sequence (O00519 30-579 limits assumed): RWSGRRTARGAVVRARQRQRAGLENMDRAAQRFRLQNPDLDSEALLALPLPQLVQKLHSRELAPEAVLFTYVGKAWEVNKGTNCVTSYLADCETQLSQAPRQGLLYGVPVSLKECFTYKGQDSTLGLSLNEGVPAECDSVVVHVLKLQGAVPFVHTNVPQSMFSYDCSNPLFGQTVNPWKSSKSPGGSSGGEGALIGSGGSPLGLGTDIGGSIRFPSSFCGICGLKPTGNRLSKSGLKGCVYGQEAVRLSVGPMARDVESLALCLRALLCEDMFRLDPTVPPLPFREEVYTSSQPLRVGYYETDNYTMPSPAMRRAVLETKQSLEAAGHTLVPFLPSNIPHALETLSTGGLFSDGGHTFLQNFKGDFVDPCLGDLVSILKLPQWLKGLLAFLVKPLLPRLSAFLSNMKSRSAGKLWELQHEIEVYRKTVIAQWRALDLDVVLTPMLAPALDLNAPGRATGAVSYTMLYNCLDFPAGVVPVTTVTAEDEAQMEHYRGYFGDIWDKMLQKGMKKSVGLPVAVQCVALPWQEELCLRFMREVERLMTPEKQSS
The assay can be described thus: Fluorescent assay protocol for hFAAH. The following applies: human FAAH (MBP fusion, ΔTM), procedure as for rFAAH. How it is done:
Human FAAH without putative transmembrane domain following maltose binding protein was expressed in E. coli cells using pMALcE4 vector Alapafuja et al J. Med. Chem. (2012) 55: 10074-89.
Procedure was followed as described for hMAGL, except that arachidonoyl-methyl coumarin amide (AAMCA) was used as fluorigenic substrate. Compounds were diluted in 50:50 DMSO/assay buffer (50 mM HEPES, 1 mM EDTA, 0.1% BSA, pH 7.4) so as to have a final DMSO concentration below 8% in each reaction. For the screening assay, 3 concentrations (1 μM, 10 μM, and 100 μM) of test compounds, 15 μg of ΔTM rFAAH and assay buffer were pre-incubated for 15 min at 25° C. AAMCA (20 μM, 2×Km) was added prior to incubation at 25° C. and kinetic fluorescence reading every 20 minutes (λex=360/λem=460) for 4 hours on a BioTek Synergy HT Microplate Reader (BioTek Instruments, Winooski, Vt.). The fluorescence reading at the 3 hour time point (linear enzyme kinetics) was used to calculate percent inhibition based on control assays without inhibitor present. All FAAH assays were performed in triplicate for each inhibitor concentration, and IC50 values determined using Prizm software (GraphPad Software, Inc.).
Procedure was followed as described for rFAAH.

The target of assay [4] is T4, Human MAGL (hMAGL) (Homo sapiens, UniProt Q99685).
T4 construct: hexahistidine; made in house; host or cells: E. coli
T4 sequence (Q99685 1-303): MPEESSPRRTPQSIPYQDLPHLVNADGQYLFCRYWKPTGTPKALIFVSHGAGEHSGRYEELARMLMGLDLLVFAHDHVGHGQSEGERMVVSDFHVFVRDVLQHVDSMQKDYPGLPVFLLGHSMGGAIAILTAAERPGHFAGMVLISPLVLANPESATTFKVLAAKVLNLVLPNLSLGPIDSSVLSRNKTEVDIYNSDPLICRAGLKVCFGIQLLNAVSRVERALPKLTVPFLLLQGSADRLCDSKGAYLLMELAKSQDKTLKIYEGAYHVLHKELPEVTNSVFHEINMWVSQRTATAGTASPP
The assay can be described thus: Fluorescent assay protocol for hMAGL (AHMMCE substrate). The settings on record: recombinant human MAGL, AHMMCE substrate, 15 min preincubation; read-out: IC50 hMAGL. On the procedure:
as §1

The term IC50 denotes the point on the concentration scale where inhibition reaches its midpoint.

Structures are written as SMILES. Some results are limits rather than exact numbers.

`NC(=O)c1cccc(-c2cccc(NC(=O)N3CCN(Cc4cnc5ccccc5c4)CC3)c2)c1` [Example 6, N-(3′-carbamoyl-[1,1′-biphenyl]-3-yl)-4-(quinolin-3-ylmethyl)piperazine-1-carboxamide]: the IC50 in assay [1] lay in the range of 0.11 to 1 µM; in assay [2], 0.01 to 0.1 µM; in assay [3], 0.01 to 0.1 µM; in assay [4], 0.11 to 1 µM.

With `C[C@H]1CN(Cc2cccc(Oc3ccccc3)c2)CCN1C(=O)Nc1cccc(-c2cccc(C(N)=O)c2)c1` [Example 4, (S)—N-(3′-carbamoyl-[1,1′-biphenyl]-3-yl)-2-methyl-4-(3-phenoxybenzyl)piperazine-1-carboxamide], the IC50 in assay [1] is > 1 µM; in assay [2], 0.01 to 0.1 µM; in assay [3], 0.01 to 0.1 µM; in assay [4], > 1 µM.

For `O=C(N1CCN(C(c2ccc(F)cc2)c2ccc(F)cc2)CC1)n1cnc(Br)c1` [Example 28, (4-(bis(4-fluorophenyl)methyl)piperazin-1-yl)(4-bromo-1H-imidazol-1-yl)methanone], the IC50 in assay [1] is > 1 µM; in assay [2] it was 0.11 to 1 µM; in assay [3], 0.11 to 1 µM; in assay [4], > 1 µM.

On to `O=C(N1CCN(C(c2ccc(F)cc2)c2ccc(F)cc2)CC1)n1nnnc1Cc1ccccc1` [Example 32, (5-benzyl-1H-tetrazol-1-yl)(4-(bis(4-fluorophenyl)methyl)piperazin-1-yl)methanone], for which the IC50 in assay [1] is > 1 µM; in assay [2] it was 0.11 to 1 µM; in assay [3], 0.11 to 1 µM; in assay [4], > 1 µM.

As for `NC(=O)c1cccc(-c2cccc(NC(=O)N3C[C@@H]4C[C@H]3CN4Cc3ccc4ccccc4n3)c2)c1` [Example 92, (1S,4S)—N-(3′-carbamoyl-[1,1′-biphenyl]-3-yl)-5-(quinolin-2-ylmethyl)-2,5-diazabicyclo[2.2.1]heptane-2-carboxamide], the IC50 in assay [1], in assay [2], in assay [3] and in assay [4] was > 1 µM each time.

As to `C[C@H]1CN(Cc2cccc(Oc3ccccc3)c2)CCN1C(=O)n1cnc(Br)c1` [Example 22, (S)-(4-bromo-1H-imidazol-1-yl)(2-methyl-4-(3-phenoxybenzyl)piperazin-1-yl)methanone], the IC50 was > 1 µM in assay [1], 0.11 to 1 µM in assay [2], 0.11 to 1 µM in assay [3] and > 1 µM in assay [4].

For `CC(c1ccccc1)N1CCN(C(=O)Oc2cccc(C#N)c2)CC1` (stereo not shown) [Example 36, 3-cyanophenyl 4-(1-phenylethyl)piperazine-1-carboxylate], the IC50 was > 1 µM in assay [1], 0.01 to 0.1 µM in assay [2], 0.01 to 0.1 µM in assay [3] and > 1 µM in assay [4].

For `O=C(N1C[C@@H]2C[C@H]1CN2c1ccccn1)n1cnc(-c2ccccc2)c1` [Example 96, (4-phenyl-1H-imidazol-1-yl)((1S,4S)-5-(pyridin-2-yl)-2,5-diazabicyclo[2.2.1]heptan-2-yl)methanone], the 50% inhibitory concentration (IC50) is > 1 µM in assay [1], 0.01 to 0.1 µM in assay [2], 0.01 to 0.1 µM in assay [3] and > 1 µM in assay [4].

As to `O=C1CC2(CCC(C(=O)n3cnc(Br)c3)CC2)Oc2ccccc21` (stereo not shown) [Example 34, 4′-(4-bromo-1H-imidazole-1-carbonyl)spiro[chromane-2,1′-cyclohexan]-4-one], the IC50 is > 1 µM in assay [1], 0.01 to 0.1 µM in assay [2], 0.01 to 0.1 µM in assay [3] and > 1 µM in assay [4].

As to `CC1CN(C(=O)n2cnc(-c3ccccc3)c2)CCN1c1cccc(OCc2ccccc2)c1` (stereo not shown) [Example 26, (4-(3-(benzyloxy)phenyl)-3-methylpiperazin-1-yl)(4-phenyl-1H-imidazol-1-yl)methanone], the IC50 in assay [1] was > 1 µM; in assay [2] it was 0.01 to 0.1 µM; in assay [3] it was 0.11 to 1 µM; in assay [4] it was > 1 µM.

As for `N#Cc1cccc(OC(=O)N2CCC(OC(c3ccc(Cl)cc3)c3cccnc3Cl)CC2)c1` (stereo not shown) [Example 53, 3-cyanophenyl 4-((4-chlorophenyl)(2-chloropyridin-3-yl)methoxy)piperidine-1-carboxylate], the IC50 in assay [1], in assay [2], in assay [3] and in assay [4] was 0.01 to 0.1 µM each time.

On to `O=C(Oc1cccc(Cl)n1)N1CCC(C(c2ccccc2)c2ccccc2)CC1` [Example 54, 6-Chloropyridin-2-yl 4-(benzhydryl)piperidine-1-carboxylate], for which the IC50 lay in the range of 0.11 to 1 µM in assay [1], 0.11 to 1 µM in assay [2], 0.01 to 0.1 µM in assay [3] and 0.11 to 1 µM in assay [4].

As for `O=C(Nc1ccccc1)N1CC(OCc2ccc(Cl)cc2)C1` [Example 81, 3-(4-Chlorobenzyloxy)-N-phenylazetidine-1-carboxamide], the IC50 in assay [1] was > 1 µM; in assay [2], 0.11 to 1 µM; in assay [3], 0.11 to 1 µM; in assay [4] it was > 1 µM.
